In ChEMBL document CHEMBL5058564, “EUbOPEN Chemogenomics Library 2 (Incucyte)” (2022):

What was measured:
Assay type in all cases: toxicity, cell-based
HEK-293T = experiment: Incucyte cell viability with HEK293T; conditions: human, 10 µM, compound concentration 10 uM
U2OS = experiment: Incucyte cell viability with U2OS; conditions: human, 10 µM, compound concentration 10 uM
Fibroblast = experiment: Incucyte cell viability with human fibroblast; conditions: 10 µM, compound concentration 10 uM
[1] = 0 h, replicate number 2, timepoint 0 hours
[2] = 6 h, replicate number 1, timepoint 6 hours
[3] = 6 h, replicate number 2, timepoint 6 hours
[4] = 12 h, replicate number 1, timepoint 12 hours
[5] = 12 h, replicate number 2, timepoint 12 hours
[6] = 18 h, replicate number 1, timepoint 18 hours
[7] = 18 h, replicate number 2, timepoint 18 hours
[8] = 24 h, replicate number 1, timepoint 24 hours
[9] = 24 h, replicate number 2, timepoint 24 hours
[10] = 0 h, replicate number 1, timepoint 0 hours
Also: unitless GR value; below 1 slowed growth and below 0 cell loss.

| Structure (SMILES) | Growth Rate (HEK-293T; [1]) | Growth Rate (HEK-293T; [2]) | Growth Rate (HEK-293T; [4]) | Growth Rate (HEK-293T; [5]) | Growth Rate (HEK-293T; [6]) | Growth Rate (HEK-293T; [7]) | Growth Rate (HEK-293T; [8]) | Growth Rate (HEK-293T; [9]) | Growth Rate (U2OS; [10]) | Growth Rate (U2OS; [1]) | Growth Rate (U2OS; [9]) | Growth Rate (Fibroblast; [1]) | Growth Rate (Fibroblast; [2]) | Growth Rate (Fibroblast; [4]) | Growth Rate (Fibroblast; [6]) | Growth Rate (Fibroblast; [8]) | Growth Rate (U2OS; [2]) | Growth Rate (U2OS; [7]) | Growth Rate (Fibroblast; [7]) | Growth Rate (Fibroblast; [9]) | further results |
| --- | --- | --- | --- | --- | --- | --- | --- | --- | --- | --- | --- | --- | --- | --- | --- | --- | --- | --- | --- | --- | --- |
| Cc1c(C(=O)Nc2ccc(N3C[C@@H](C)O[C@@H](C)C3)nc2)cccc1-c1ccc(OC(F)(F)F)cc1 [SONIDEGIB] | -0.95 | 0.25 | -0.06 | -0.54 | 0 | -0.39 | 0.05 | -0.3 | -0.44 | -1 | 0.97 | 0.63 | 0.45 | 0.42 | 0.13 | 0.36 | – | – | – | – | Growth Rate (HEK-293T; [3]): -0.63; Growth Rate (Fibroblast; [10]): 0.97 |
| CCCCCCCCCCCCC/C=C/[C@@H](O)[C@@H](N)COP(=O)([O-])OCC[N+](C)(C)C [SPHINGOSYLPHOSPHORYLCHLOLINE] | – | -0.01 | 0.28 | -0.08 | 0.46 | 0.29 | 0.43 | 0.54 | – | – | 0.88 | – | -0.36 | -0.22 | -0.17 | 0.17 | 0.97 | 0.8 | 0.1 | 0.07 | Growth Rate (HEK-293T; [3]): -0.35; Growth Rate (U2OS; [5]): 0.91; Growth Rate (U2OS; [8]): 0.9; Growth Rate (Fibroblast; [3]): -0.69; Growth Rate (Fibroblast; [5]): -0.25 |
| CS(=O)(=O)N1CCCC(NC(=O)[C@H](CCC2CCCCC2)NC(=O)c2ccc(CNc3ncnc4c3nnn4-c3ccccc3)cc2)C1 (stereo partly drawn) [SR-301] | 0.12 | -0.5 | -0.33 | – | -0.23 | – | -0.11 | – | 0.63 | – | – | -0.06 | -0.33 | -0.47 | -0.48 | -0.39 | 0.78 | 0.89 | – | – | Growth Rate (U2OS; [4]): 0.94; Growth Rate (U2OS; [6]): 0.6; Growth Rate (U2OS; [8]): 0.6 |
| CN[C@@H]1C[C@H]2O[C@@](C)([C@@H]1OC)n1c3ccccc3c3c4c(c5c6ccccc6n2c5c31)C(=O)NC4 [STAUROSPORINE] | -0.46 | – | – | – | 0.33 | 0.42 | 0.11 | 0.09 | – | – | 0.49 | -0.7 | – | 0.41 | 0 | -0.13 | – | 0.69 | 0.61 | 0.35 | Growth Rate (HEK-293T; [10]): -0.75; Growth Rate (U2OS; [6]): 0.79; Growth Rate (U2OS; [8]): 0.65; Growth Rate (Fibroblast; [10]): 0.05 |
| O=S(=O)(c1ccccc1)N(CC(F)(F)F)c1ccc(C(O)(C(F)(F)F)C(F)(F)F)cc1 [T091317] | – | 0.85 | 0.42 | 0.75 | 0.24 | 0.56 | 0.37 | 0.53 | 0.14 | -0.29 | 0.81 | – | 0.72 | -0.09 | -0.3 | -0.32 | 0.74 | 0.76 | 0.05 | 0.05 | Growth Rate (HEK-293T; [10]): 0.85; Growth Rate (HEK-293T; [3]): 0.77; Growth Rate (U2OS; [5]): 0.83; Growth Rate (U2OS; [6]): 0.98; Growth Rate (Fibroblast; [5]): 0.22 |
| CCC(=O)NC[C@@H]1C[C@H]1c1cccc2c1CCO2 [TASIMELTEON] | 0.1 | 0.74 | – | – | 0.92 | 0.94 | 0.79 | 0.99 | -0.37 | -0.06 | 0.96 | 0.97 | 0.35 | 0.48 | 0.69 | 0.48 | 0.85 | 0.96 | 0.76 | 0.82 | Growth Rate (HEK-293T; [10]): 0.74; Growth Rate (U2OS; [3]): 0.51; Growth Rate (U2OS; [4]): 0.97; Growth Rate (U2OS; [5]): 0.81; Growth Rate (Fibroblast; [3]): 0.26; Growth Rate (Fibroblast; [5]): 0.49 |
| O=C(N[C@@H]1CC[C@@H](c2cccc(F)c2F)CN(CC(F)(F)F)C1=O)N1CCC(n2c(=O)[nH]c3ncccc32)CC1 [TELCAGEPANT] | – | 0.32 | 0.66 | 0.94 | 0.54 | 0.98 | 0.81 | – | – | -1 | 0.95 | 0.95 | 0.18 | 0.01 | 0.11 | 0.22 | 0.8 | 0.98 | 0.66 | 0.72 | Growth Rate (HEK-293T; [3]): 0.77; Growth Rate (U2OS; [8]): 0.86; Growth Rate (Fibroblast; [3]): -0.28; Growth Rate (Fibroblast; [5]): 0.39 |
| COc1cc2nc(N3CCN(C(=O)C4CCCO4)CC3)nc(N)c2cc1OC.Cl.O.O (stereo not drawn) [TERAZOSIN HYDROCHLORIDE] | 0.29 | 0.91 | 0.69 | 0.83 | 0.78 | 0.79 | 0.87 | 0.79 | – | 0.74 | – | 0.43 | – | – | – | – | 0.56 | – | 0.8 | 0.57 | Growth Rate (HEK-293T; [10]): 0.72; Growth Rate (U2OS; [3]): 0.76; Growth Rate (U2OS; [4]): 0.73; Growth Rate (U2OS; [6]): 0.88; Growth Rate (U2OS; [8]): 0.99; Growth Rate (Fibroblast; [10]): 0.68; Growth Rate (Fibroblast; [3]): 0.32; Growth Rate (Fibroblast; [5]): 0.84 |
| Cc1ccc2c(c1CCC(=O)O)CC[C@@H](NS(=O)(=O)c1ccc(Cl)cc1)C2 [TERUTROBAN] | 0.31 | 0.87 | – | – | 0.99 | 0.97 | 0.94 | – | -0.59 | -1 | – | 0 | – | – | – | 0.83 | – | – | – | – | Growth Rate (HEK-293T; [10]): 0.06; Growth Rate (Fibroblast; [10]): -0.56 |
| Cc1c(Cc2ccc3ccccc3n2)c2cc(F)ccc2n1CC(=O)O [TIMAPIPRANT] | 0.4 | – | – | – | 0.82 | – | – | – | – | -1 | – | 0.31 | 0.6 | 0.51 | 0.8 | 0.87 | 0.37 | 0.96 | – | – | Growth Rate (U2OS; [4]): 0.81; Growth Rate (U2OS; [6]): 0.63; Growth Rate (Fibroblast; [10]): 0.53 |
| C[N+]1(C)[C@@H]2C[C@@H](OC(=O)C(O)(c3cccs3)c3cccs3)C[C@H]1[C@@H]1O[C@@H]12.O.[Br-] [TIOTROPIUM BROMIDE] | -0.14 | 0.86 | 0.87 | – | 0.7 | 0.99 | 0.79 | 0.91 | 0.04 | 0.9 | – | -0.05 | -0.47 | 0.71 | 1 | 0.95 | 0.61 | – | 0.83 | 0.7 | Growth Rate (HEK-293T; [10]): 0.54; Growth Rate (U2OS; [3]): 0.93; Growth Rate (U2OS; [4]): 0.64; Growth Rate (U2OS; [6]): 0.68; Growth Rate (U2OS; [8]): 0.86; Growth Rate (Fibroblast; [5]): 0.99 |
| Cl.Clc1ccc2nsnc2c1NC1=NCCN1 [TIZANIDINE HYDROCHLORIDE] | – | – | 1 | 0.61 | – | – | – | – | 0.36 | -1 | – | 0.25 | -0.29 | 0.72 | 0.25 | 0.25 | 0.31 | – | – | – | Growth Rate (HEK-293T; [3]): 0.88 |
| Cc1ccc(O)c([C@H](CCN(C(C)C)C(C)C)c2ccccc2)c1.O=C(O)C(O)C(O)C(=O)O [TOLTERODINE TARTRATE] | 0.52 | 0.89 | 0.79 | – | – | – | – | – | -0.73 | 0.94 | – | 0.83 | 0.59 | 0.92 | – | – | 0.98 | – | – | – | – |
